One data set concerns 129/SvEv mice. Description: Novelty-suppressed feeding test (NSF). Type of data set: in vivo, mouse.
The test system of data set [1] is BrdU-positive cells in the dentate gyrus. Put plainly: BrdU labeling of cell proliferation and neurogenesis in the dentate gyrus. Type of data set: in vivo, mouse. The note with it: for BrdU-positive cells surviving 28 days after BrdU injection: wild type mice, chronic treatment, sacrificed 28 days after BrdU; for BrdU-labeled cells in the SGZ (cell proliferation): 8-OH-DPAT chronic (28 days, 1 mg/kg/day mini pumps), WT (+/+) mice, vs sham, 1 mg/kg/day.

For data set [2], the system named is 5-HT1A receptor knockout (KO) mice. Put plainly: Novelty-suppressed feeding test (NSF) in 5-HT1A knockout mice. The class given is in vivo, mouse. As to the method: The Novelty-suppressed feeding test was carried out during a 5-min period as previously described (Santarelli et al., 2001). Briefly, the testing apparatus consisted of a plastic box, 50×50×20 cm. The floor was covered with approximately 2 cm of wooden bedding. Twenty-four hours prior to behavioral testing, all food was removed from the home cage. At the time of testing, a single pellet of food (regular chow) was placed on a white paper platform positioned in the center of the box. An animal was placed in a corner of the maze and a stopwatch was immediately started. The measure of interest (chewing) was scored when the mouse was sitting on its haunches and biting with the use of forepaws. Immediately after this test, mice were transferred to their home cage and the amount of food consumed in 5 min was measured (home cage food consumption). In knockout experiments, mice were genotyped after behavioral testing to remove the possibility of investigator bias. Mice were always tested during the light period.
Among the 14 known 5-HT receptor subtypes, the 5-HT1A receptor has been most consistently implicated in the modulation of mood and anxiety-related behaviors (Gross et al., 2000; Sargent et al., 2000). To determine whether this receptor is required to mediate the effects of serotonin- and noradrenaline-enhancing ADs, we compared the effects of these drugs in wild type (WT) mice and in mice lacking the 5-HT1A receptor (5-HT1A receptor knockout (KO) mice). WT and KO mice were treated with fluoxetine, imipramine, desipramine, or vehicle for a period of 28 days before being tested in the NSF paradigm.

The conditions of data set [3]: mouse, in vivo, po.
Protocol: Fluoxetine (Eli Lilly, Indianapolis, Ind.), Imipramine (Sigma-Aldrich, St. Louis, Mo.), Desipramine (Sigma-Aldrich, St. Louis, Mo.) and Haloperidol (Sigma-Aldrich, St. Louis, Mo.) were dissolved in tap water at a concentration of 80, 160, 160, and 8 mg/L, respectively. These concentration were established based on the average drinking amount and average weight of the mice used in the study to achieve a final dose of 10 (fluoxetine), 20 (imipramine and desipramine) and 1 (haloperidol) mg/kg/day. […] Vehicle animals received tap water. 8-hydroxy-2-(di-n-propylamino) tetralin (8-OH-DPAT, Sigma-Aldrich, St. Louis, Mo.) was dissolved in sterile saline (0.9% NaCl) at a concentration of 4.5 mg/ml, and delivered through Alzet osmotic mini-pumps (model 2004, Alzet, Cupertino, Calif.) implanted subcutaneously 28 days prior to behavioral testing. The final average dose delivered was 1 mg/kg/day. Sham mice were implanted with mini-pumps containing sterile saline.
Data set [4] relates to dentate gyrus (DG) of the rat hippocampus. The note with it: Malberg et al., 2000; cited from earlier work.
In another data set the test system is BALB/c mice. Put plainly: Chronic unpredictable stress paradigm (CUS). The class given is in vivo, mouse. The settings on record: for state of the coat (fur) in CUS: fluoxetine 10 mg/kg/day i.p. from week 3, end of fifth week; for weight loss induced by stress in CUS / grooming latency in CUS: fluoxetine 10 mg/kg/day i.p.; for weight loss induced by stress in CUS: data not shown; for grooming latency in CUS: sixth week, after sucrose solution. On the procedure: The stress regimen used is a variant of the chronic mild stress procedures described by Willner et al. (Willner et al., 1992). Mice were subjected to various and repeated unpredictable stressors for a period of five weeks (Griebel et al., 2002). The different stressors used were: alterations of the bedding (repeated sawdust changing, removal of sawdust, damp sawdust, substitution of sawdust with 37° C. water); cage tilting (45°); predator sounds (15 min.); cage shift (mice were positioned in the empty cage of another male); light to dark or dark to light shifts (four light/dark successions of 30 min every 24 hours); reversal of the light/dark cycle. The fluoxetine treatment (10 mg/kg/day, i.p.) started at the beginning of the third week. The state of the coat was assessed at the end of the stress regimen (end of fifth week). The total score resulted from the sum of the score of seven different body parts: head, neck, dorsal coat, ventral coat, tail, forepaws and the hindpaws. A score of 0 was given for a well-groomed coat and 1 for a spoiled coat (see Griebel, 2002). The grooming latency was assessed at the end of the sixth week. This test consisted in squirting 200 μl of a 10% sucrose solution on the mouse's snout. The latency to start grooming was then recorded.
The CUS protocol consists of the sequential application of a number of stressors, presented in a varied and unpredictable manner during 5 weeks. The continued application of these stressors produces a deterioration in the state of the coat, an impaired grooming response, and weight loss (Griebel et al., 2002; Willner et al., 1992). ADs such as fluoxetine can reverse these stress-induced effects after chronic, but not acute, administration (Griebel et al., 2002; Willner et al., 1992).
Sham and irradiated mice were subjected to five weeks of CUS, beginning two weeks after the final X-ray dose, and half of the animals in each group were administered fluoxetine (10 mg/kg/day, i.p.) from weeks 3-6. The state of each animal's fur was assessed at the end of the stress period, and assigned a score based on observations from several body regions (see methods). Fluoxetine treatment was continued for one more week, after which we measured the latency to begin grooming following application of a sucrose solution to the head of each animal.

Data set [5] has as its system BrdU-positive cells in the dentate gyrus of 5-HT1A receptor KO mice. Description: BrdU labeling of cell proliferation in the dentate gyrus of 5-HT1A knockout mice. The settings on record: for BrdU-positive cells surviving 28 days after BrdU injection: 5-HT1A KO mice, chronic treatment, sacrificed 28 days after BrdU; for BrdU-labeled cells in the SGZ (cell proliferation): 8-OH-DPAT chronic (28 days, 1 mg/kg/day mini pumps), vs sham, 1 mg/kg/day.
Protocol: Knockout and wild-type 129/SvEv age-matched adult male mice (12-20 weeks) derived from heterozygote crossings (Phillips et al., 1999) were used in all experiments that included 5-HT1A knockout mice. […] Mice were housed 4-5 per cage in a 12-h (06:00-18:00) light-dark colony room at 22° C. with freely available food and water.
To assess the effect of antidepressant or X-irradiation treatments on the number of BrdU-positive cells, mice were administered BrdU (4×75 mg/kg i.p., dissolved in saline, every 2 hr; Roche Diagnostic, Indianapolis, Ind.) and sacrificed 24 hr after the last BrdU injection (FIG. 2A, 3B, 5C-D). To determine cell survival and phenotype after the various antidepressant treatments, fluoxetine, imipramine and vehicle-treated mice were allowed to survive for 28 days after the last BrdU injection (FIG. 2C-D, 3C). After deep anesthesia with a mixture of ketamine/xylazine (100 mg/kg and 7 mg/kg respectively),, mice were transcardially perfused (cold saline for 2 min, followed by 4% cold paraformaldehyde/0.1 M phosphate buffer for 5 min) and brains were collected for immunohistochemistry. All brains were post-fixed overnight in 4% paraformaldehyde at 4° C., then cryoprotected in 30% sucrose and stored at 4° C. Serial sections of the brains were cut (35 μm sections) through the entire hippocampus (plates 41-61; Franklin and Paxinos, 1997) on a cryostat and stored in PBS with 0.1% NaN3. For DAB staining, sections were slide-mounted and boiled in citric acid, pH 6.0, for 5 min, rinsed with PBS, and treated with 0.01% trypsin in Tris/CaC12 for 10 min. Brain sections were incubated for 30 min with 2N HCl and blocked with 5% NGS (Jackson ImmunoResearch, West Grove, Pa.). Sections were then incubated over night at room temperature with anti-mouse BrdU (1:100; Becton-Dickinson). After washing with PBS, sections were incubated for 1 hr with secondary antibody (1:200 biotinylated goat anti-mouse; Sigma-Aldrich, St. Louis, Mo.) followed by amplification with an avidin-biotin complex (Vector Laboratories). The staining was visualized with DAB (Sigma-Aldrich, St. Louis, Mo.). For fluorescent double-labeling, the DNA-denaturation procedure consisted of the following steps: 2 hr incubation in 50% formamide-2×SSC at 65° C., 5 min rinse in 2×SSC, 30 min incubation in 2N HCl at 37° C., and 10 min rinse in 0.1 M boric acid, pH 8.5. Sections were then incubated in TBS-0.1% Triton X-100 (Tx)-5% normal donkey serum (NDS) for 30 min, followed by anti-rat BrdU primary antibody (1:100; Accurate Westbury, N.Y. or Serotec, Oxford, UK) in TBS/NDS/Tx for 24 hrs at 4° C. in combination with either a mouse monoclonal antibody to NeuN (1:500; Chemicon, Temecula, Calif.) or a rabbit polyclonal antibody to GFAP (1:800; DAKO, Carpinteria, Calif.). The fluorescent secondary antibodies used were biotin-conjugated donkey anti-rat (1:200) plus streptavidin Cy2 (1:200), donkey anti-mouse. Cy3 (1:500), or donkey anti-rabbit Cy3 (1:500) (Jackson ImmunoResearch, West Grove, Pa.). Fluorescent images were taken with a Bio-Rad MRC 1000 confocal laser scanning system coupled to a Zeiss Axiovert 100 inverted microscope. For each image acquisition, a Kalman average of five frames was used. For quantification of BrdU/NeuN or BrdU/GFAP double-labeled cells, at least 50 BrdU-positive cells per animal were analyzed using Z-plane sectioning (1 μm steps).
In this set of experiments, wild type and 5-HT1A receptor KO mice were injected with BrdU following 27 days of treatment with fluoxetine, imipramine, or vehicle. To assess the effect of AD treatment on cell proliferation, one group of mice was sacrificed 24 hours after BrdU injection and sections containing the dentate gyrus were analyzed by immunohistochemistry.

The mark [6] stands for this setting: 28 days via drinking water, 5-HT1A knockout (−/−) mice, vs vehicle.
Setting [7] is: 5-day treatment via drinking water, vs vehicle.
Where [8] appears, read: 28 days via drinking water, fluoxetine 10, imipramine 20, desipramine 20, haloperidol 1 mg/kg/day, wild-type mice, vs vehicle.
The mark [9] stands for this setting: 28 days, X-irradiated mice (3 x 5 Gy to hippocampus), vs vehicle.
Where [10] appears, read: 28 days, sham (non-irradiated) mice, vs vehicle.

Entries after “also recorded” stand apart in the source; their conditions may differ. Read-outs that look alike come from different tables or passages of the source.

Protocol for 129/SvEv mice: Haloperidol, an antipsychotic that antagonizes D2 dopamine receptors, was used as a negative control because it is devoid of antidepressant activity in humans. NSF performance was assessed after either 5 or 28 days of oral drug administration.

Take `O=C(CCCN1CCC(O)(c2ccc(Cl)cc2)CC1)c1ccc(F)cc1` [haloperidol, Haloperidol]: the “latency to feed in NSF” value in the data set on 129/SvEv mice (28 days via drinking water, fluoxetine 10, imipramine 20, desipramine 20, haloperidol 1 mg/kg/day, wild-type mice, vs vehicle, listed as Haloperidol) was “ineffective”.
In the case of `CNCCC(Oc1ccc(C(F)(F)F)cc1)c1ccccc1` (stereo not drawn) [fluoxetine, Fluoxetine], in data set [1] (chronic fluoxetine, X-irradiated animals), the “cell proliferation (BrdU)” value is given as “no effect”. For the same compound, the “cell proliferation (BrdU) in the SGZ” value in data set [1] (chronic fluoxetine, non-irradiated mice) is recorded as “increased cell proliferation”. Further, the “cell proliferation (BrdU) in the SVZ” value in data set [1] (chronic fluoxetine, subventricular zone) was “no effect”. The “number of BrdU-positive cells in the DG” value in data set [1] (fluoxetine 5 days, sacrificed 24 hours after BrdU, vs vehicle) is “No significant effect”. Also, the “increase in BrdU-labeled cells in the dentate gyrus” value in data set [1] (wild type (+/+) mice, 27 days (4 weeks) treatment, sacrificed 24 hours after BrdU, vs vehicle) is on record as “two-fold increase; also recorded: effective only in +/+ mice”; in data set [5] (5-HT1A KO (−/−) mice, 27 days (4 weeks) treatment, sacrificed 24 hours after BrdU, vs vehicle), “no effect; also recorded: effective only in +/+ mice”. Moreover, the “BrdU-positive cells surviving 28 days after BrdU injection” value in data set [1] (vs vehicle) is given as “had an effect in WT”; in data set [5] (vs vehicle) it was “not in KO”. The “latency to feed in NSF” value in data set [2] (setting [6]) was “insensitive”; in data set [2] (28 days via drinking water, 5-HT1A knockout (−/−) mice, vs vehicle, listed as Fluoxetine), “only imipramine and desipramine were effective”; in the data set with 129/SvEv mice (setting [7]), “no effect”; in the data set on 129/SvEv mice (setting [8]), “significant decreases in the latency to feed”; with 129/SvEv mice (28 days via drinking water, fluoxetine 10, imipramine 20, desipramine 20, haloperidol 1 mg/kg/day, wild-type mice, vs vehicle, listed as Fluoxetine), “significantly decreased the latency to feed”; in the data set with 129/SvEv mice (setting [9]) it was “no such anxiolytic-like effect”. Besides, the “latency to feed in NSF” value in the data set with 129/SvEv mice (setting [10]) is “significant reduction in the latency to feed”. The “time by which steady serum levels had been achieved” value (shortened to “time”) in data set [3] (129/SvEv) is given as at most 5 days. Besides, the “neurogenesis in the dentate gyrus” value in data set [4] is “increase neurogenesis”. Also, the “state of the coat (fur) in CUS” value with BALB/c mice (X-irradiated mice) is “absent; also recorded: Irradiation prevented the improvement of the state of the coat”; with BALB/c mice (sham mice), “significantly improved the state of the fur; also recorded: significant differences between the fluoxetine-treated sham group and all the others”. Moreover, the “weight loss induced by stress in CUS” value is on record as “irradiation blocked this effect” with BALB/c mice (X-irradiated mice) and “trend to reverse the weight loss” in the data set on BALB/c mice (sham mice). Moreover, the “grooming latency in CUS” value is recorded as “X-irradiation blocked this effect” with BALB/c mice (X-irradiated mice) and “decreased; also recorded: decrease in the latency to groom” in the data set on BALB/c mice (sham mice).
Take `CNCCCN1c2ccccc2CCc2ccccc21` [desipramine, Desipramine]: the “latency to feed in NSF” value was “still responsive; also recorded: effective” in data set [2] (setting [6]) and “significant decreases in the latency to feed; also recorded: significantly decreased the latency to feed” with 129/SvEv mice (setting [8]). Further, the “time” value in data set [3] (129/SvEv) was at most 5 days.
As to `NCCC(Oc1ccc(C(F)(F)F)cc1)c1ccccc1` (stereo not drawn) [nor- fluoxetine], in data set [3], the “time” value is given as at most 5 days.
Take `CCCN(CCC)C1CCc2cccc(O)c2C1` (stereo not drawn) [8-OH-DPAT]: the “BrdU-labeled cells in the SGZ (cell proliferation)” value in data set [1] is “caused an increase in cell proliferation”; in data set [1] (listed as DPAT) it was “DPAT-induced increases in BrdU-labeled cells”; in data set [5] (5-HT1A KO (−/−) mice) it was “not observed”; in data set [5] (5-HT1A KO (−/−) mice, listed as DPAT), “not −/− mice”. In addition, the “latency to feed in NSF” value in data set [2] (28 days, subcutaneous osmotic mini pumps, 1 mg/kg/day, 5-HT1A knockout (−/−), vs sham, 1 mg/kg/day) was “ineffective”; in the data set on 129/SvEv mice (28 days, subcutaneous osmotic mini pumps, 1 mg/kg/day, wild type (+/+), vs sham, 1 mg/kg/day), “significantly decreased the latency to feed; also recorded: significant decrease in the latency to feed”.
Consider `CN(C)CCCN1c2ccccc2CCc2ccccc21` [imipramine, Imipramine], for which the “BrdU-positive cells surviving 28 days after BrdU injection” value in data set [1] (vs vehicle) and in data set [5] (vs vehicle) was “effective in both genotypes” in each case. Moreover, the “latency to feed in NSF” value in data set [2] (setting [6]) is “still responsive; also recorded: effective”; in the data set with 129/SvEv mice (setting [7]), “no effect”; with 129/SvEv mice (setting [8]) it was “significant decreases in the latency to feed; also recorded: significantly decreased the latency to feed”; in the data set on 129/SvEv mice (setting [9]), “no such anxiolytic-like effect”; with 129/SvEv mice (setting [10]) it was “significant reduction in the latency to feed”. Moreover, the “time” value in data set [3] (129/SvEv) is at most 5 days.

These data come from patent publication US20040247525A1, “Brain progenitor cell-based assay, and related methods and compositions” (priority 2003, published 2004).
